This passage reports IC50 results from ChEMBL document CHEMBL1146751, “Threshold interaction energy of NRTI's (2'-deoxy 3'-substituted nucleosidic analogs of reverse transcriptase inhibitors) to undergo competitive inhibition” (Bioorg Med Chem Lett, 2004).

By IC50 is commonly meant the midpoint of a concentration-inhibition curve. The low end stands for inhibition by little substance, the high end for a need for much substance.

Where a name gives a salt, the structure may show the parent alone.

The experiment relates to MT4. The experiment in a line: Potency against […] nucleoside reverse transcriptor was determined in MT-4 cells. Format: functional, cell-based. As to conditions: Homo sapiens.
The compound `O=C1Nc2ccc(Cl)cc2[C@@](C#CC2CC2)(C(F)(F)F)O1` [EFAVIRENZ] came in with an IC50 of 40 nM. `Nc1ccn([C@H]2CC[C@@H](CO)O2)c(=O)n1` [ZALCITABINE] registered an IC50 of 1600 nM. This IC50 lies about 40-fold higher than the previous one. `CCOC(=O)c1cccn1S(=O)(=O)c1cc(Cl)ccc1N` returned an IC50 of 400 nM. On to `Cc1ccnc2c1NC(=O)c1cccnc1N2C1CC1` [NEVIRAPINE], for which inhibition was half-maximal at 600 nM (IC50). Compound `Nc1[nH]cnc2ncnc1-2` [ADENINE] yielded an IC50 of 12000 nM. With `Cc1cn([C@H]2C[C@H](N=[N+]=[N-])[C@@H](CO)O2)c(=O)[nH]c1=O` [ZIDOVUDINE] the figure was 40 nM; with `S=C(NCCc1ccccn1)Nc1ccc(Br)cn1` [TROVIRDINE HYDROCHLORIDE], 800 nM. With `Cc1ncc([N+](=O)[O-])n1CCOC(c1ccccc1)c1ccccc1` the figure was 50 nM.
